{"source": "the supplement of paper PMC6045584", "note": "± gives the standard deviation of the averaged measurements."}
{"compound": "CC(=O)c1c(C)c2cnc(Nc3ccc(N4CCNCC4)cn3)nc2n(C2CCCC2)c1=O", "test": "surviving fraction relative to DMSO-only wells; higher = less growth inhibition", "conditions": "10 nM; exposure time: 5 days", "method_in_brief": "(§1)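 Log-phase tumour cell lines were seeded at 250–500 cells per well in 384-well plates. After 24 hours they were exposed continuously for five days to inhibitors at 0.5, 1, 5, 10, 50, 100, 500 and 1000 nM. Viability was read by CellTiter-Glo luminescence after 10 minutes at room temperature, and surviving fraction is luminescence normalised to the median of DMSO-only wells. Each line was screened three times and kept only if replicate Pearson r >0.7 and median Z' >0.3.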"}
{"test system": "SCC003 HEADNECK", "surviving fraction": "1.08 ± 0.086"}
{"compound": "CC(=O)c1c(C)c2cnc(Nc3ccc(N4CCNCC4)cn3)nc2n(C2CCCC2)c1=O", "test": "surviving fraction relative to DMSO-only wells; higher = less growth inhibition", "conditions": "50 nM; exposure time: 5 days", "method_in_brief": "as §1"}
{"test system": "HS578T BREAST", "surviving fraction": "1.11 ± 0.15"}
{"test system": "JURKAT HAEMATOPOIETIC AND LYMPHOID TISSUE", "surviving fraction": "1.03 ± 0.034"}
{"test system": "MDAMB453 BREAST", "surviving fraction": "1.15 ± 0.1"}
{"test system": "S68 BREAST", "surviving fraction": "1.01 ± 0.091"}
{"test system": "SCC003 HEADNECK", "surviving fraction": "1.13 ± 0.14"}
{"compound": "CC(=O)c1c(C)c2cnc(Nc3ccc(N4CCNCC4)cn3)nc2n(C2CCCC2)c1=O", "test": "surviving fraction relative to DMSO-only wells; higher = less growth inhibition", "conditions": "100 nM; exposure time: 5 days", "method_in_brief": "as §1"}
{"test system": "HS578T BREAST", "surviving fraction": "1.14 ± 0.19"}
{"test system": "JURKAT HAEMATOPOIETIC AND LYMPHOID TISSUE", "surviving fraction": "1.05 ± 0.013"}
{"test system": "MDAMB453 BREAST", "surviving fraction": "1.11 ± 0.061"}
{"test system": "S68 BREAST", "surviving fraction": "1.19 ± 0.2"}
{"test system": "SCC003 HEADNECK", "surviving fraction": "1.08 ± 0.076"}
{"compound": "CC(=O)c1c(C)c2cnc(Nc3ccc(N4CCNCC4)cn3)nc2n(C2CCCC2)c1=O", "test": "surviving fraction relative to DMSO-only wells; higher = less growth inhibition", "conditions": "500 nM; exposure time: 5 days", "method_in_brief": "as §1"}
{"test system": "HS578T BREAST", "surviving fraction": "0.949 ± 0.071"}
{"test system": "JURKAT HAEMATOPOIETIC AND LYMPHOID TISSUE", "surviving fraction": "0.847 ± 0.032"}
{"test system": "MDAMB453 BREAST", "surviving fraction": "1 ± 0.026"}
{"test system": "S68 BREAST", "surviving fraction": "0.744 ± 0.043"}
{"test system": "SCC003 HEADNECK", "surviving fraction": "1.06 ± 0.081"}
{"compound": "CC(=O)c1c(C)c2cnc(Nc3ccc(N4CCNCC4)cn3)nc2n(C2CCCC2)c1=O", "test": "surviving fraction relative to DMSO-only wells; higher = less growth inhibition", "conditions": "1000 nM; exposure time: 5 days", "method_in_brief": "as §1"}
{"test system": "HS578T BREAST", "surviving fraction": "1.13 ± 0.082"}
{"test system": "JURKAT HAEMATOPOIETIC AND LYMPHOID TISSUE", "surviving fraction": "0.793 ± 0.018"}
{"test system": "MDAMB453 BREAST", "surviving fraction": "1.01 ± 0.071"}
{"test system": "S68 BREAST", "surviving fraction": "0.79 ± 0.29"}
{"test system": "SCC003 HEADNECK", "surviving fraction": "0.884 ± 0.084"}
{"compound": "CC[C@@]1(O)C(=O)OCc2c1cc1n(c2=O)Cc2cc3ccccc3nc2-1 [CAMPTOTHECIN]", "test": "surviving fraction relative to DMSO-only wells; higher = less growth inhibition", "conditions": "0.5 nM; exposure time: 5 days", "method_in_brief": "as §1"}
{"test system": "HS578T BREAST", "surviving fraction": "0.811 ± 0.14"}
{"test system": "JURKAT HAEMATOPOIETIC AND LYMPHOID TISSUE", "surviving fraction": "0.928 ± 0.043"}
{"test system": "MDAMB453 BREAST", "surviving fraction": "0.966 ± 0.069"}
{"test system": "S68 BREAST", "surviving fraction": "0.576 ± 0.087"}
{"test system": "SCC003 HEADNECK", "surviving fraction": "0.817 ± 0.034"}
{"compound": "CC[C@@]1(O)C(=O)OCc2c1cc1n(c2=O)Cc2cc3ccccc3nc2-1 [CAMPTOTHECIN]", "test": "surviving fraction relative to DMSO-only wells; higher = less growth inhibition", "conditions": "1 nM; exposure time: 5 days", "method_in_brief": "as §1"}
{"test system": "HS578T BREAST", "surviving fraction": "0.778 ± 0.18"}
{"test system": "JURKAT HAEMATOPOIETIC AND LYMPHOID TISSUE", "surviving fraction": "0.902 ± 0.025"}
{"test system": "MDAMB453 BREAST", "surviving fraction": "0.966 ± 0.017"}
{"test system": "S68 BREAST", "surviving fraction": "0.544 ± 0.073"}
{"test system": "SCC003 HEADNECK", "surviving fraction": "0.868 ± 0.085"}
{"compound": "CC[C@@]1(O)C(=O)OCc2c1cc1n(c2=O)Cc2cc3ccccc3nc2-1 [CAMPTOTHECIN]", "test": "surviving fraction relative to DMSO-only wells; higher = less growth inhibition", "conditions": "5 nM; exposure time: 5 days", "method_in_brief": "as §1"}
{"test system": "HS578T BREAST", "surviving fraction": "0.729 ± 0.11"}
{"test system": "JURKAT HAEMATOPOIETIC AND LYMPHOID TISSUE", "surviving fraction": "0.282 ± 0.011"}
{"test system": "MDAMB453 BREAST", "surviving fraction": "1.01 ± 0.048"}
{"test system": "S68 BREAST", "surviving fraction": "0.442 ± 0.11"}
{"test system": "SCC003 HEADNECK", "surviving fraction": "0.849 ± 0.065"}
{"compound": "CC[C@@]1(O)C(=O)OCc2c1cc1n(c2=O)Cc2cc3ccccc3nc2-1 [CAMPTOTHECIN]", "test": "surviving fraction relative to DMSO-only wells; higher = less growth inhibition", "conditions": "10 nM; exposure time: 5 days", "method_in_brief": "as §1"}
{"test system": "HS578T BREAST", "surviving fraction": "0.648 ± 0.091"}
{"test system": "JURKAT HAEMATOPOIETIC AND LYMPHOID TISSUE", "surviving fraction": "0.0237 ± 0.0015"}
{"test system": "MDAMB453 BREAST", "surviving fraction": "0.942 ± 0.058"}
{"test system": "S68 BREAST", "surviving fraction": "0.342 ± 0.041"}
{"test system": "SCC003 HEADNECK", "surviving fraction": "0.786 ± 0.094"}
{"compound": "CC[C@@]1(O)C(=O)OCc2c1cc1n(c2=O)Cc2cc3ccccc3nc2-1 [CAMPTOTHECIN]", "test": "surviving fraction relative to DMSO-only wells; higher = less growth inhibition", "conditions": "50 nM; exposure time: 5 days", "method_in_brief": "as §1"}
{"test system": "HS578T BREAST", "surviving fraction": "0.464 ± 0.05"}
{"test system": "JURKAT HAEMATOPOIETIC AND LYMPHOID TISSUE", "surviving fraction": "0.0293 ± 0.00058"}
{"test system": "MDAMB453 BREAST", "surviving fraction": "0.43 ± 0.03"}
{"test system": "S68 BREAST", "surviving fraction": "0.284 ± 0.045"}
{"test system": "SCC003 HEADNECK", "surviving fraction": "0.361 ± 0.052"}
{"compound": "CC[C@@]1(O)C(=O)OCc2c1cc1n(c2=O)Cc2cc3ccccc3nc2-1 [CAMPTOTHECIN]", "test": "surviving fraction relative to DMSO-only wells; higher = less growth inhibition", "conditions": "100 nM; exposure time: 5 days", "method_in_brief": "as §1"}
{"test system": "HS578T BREAST", "surviving fraction": "0.457 ± 0.054"}
{"test system": "JURKAT HAEMATOPOIETIC AND LYMPHOID TISSUE", "surviving fraction": "0.0247 ± 0.00058"}
{"test system": "MDAMB453 BREAST", "surviving fraction": "0.453 ± 0.015"}
{"test system": "S68 BREAST", "surviving fraction": "0.218 ± 0.021"}
